Consider 3 molecules from article PMC7597377 (Science signaling, 2020).

Positions count from the first letter of the chain named.

Experiment in all cases: competitive radiometric binding vs [3H]E2
The target in assay [1] is T1, ERα LBD (WT-Q, his-tagged) (Homo sapiens, UniProt P03372).
T1 sequence (P03372 302-552 limits assumed): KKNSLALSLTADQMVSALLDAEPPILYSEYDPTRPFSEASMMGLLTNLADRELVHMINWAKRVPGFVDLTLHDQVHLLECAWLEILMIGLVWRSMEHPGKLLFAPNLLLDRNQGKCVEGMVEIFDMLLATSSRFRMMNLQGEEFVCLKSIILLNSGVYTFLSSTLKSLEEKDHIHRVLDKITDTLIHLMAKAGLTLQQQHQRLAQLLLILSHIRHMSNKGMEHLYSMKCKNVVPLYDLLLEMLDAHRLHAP

In assay [2] the target is T2, ERα LBD (WT-Q, his-tagged) (Homo sapiens, UniProt P03372, Q375L).
T2 sequence (P03372 302-552 Q375L limits assumed): T1 sequence (P03372 302-552 limits assumed) with Q74L

Assay [3] addresses T3, ERα LBD (WT-Q, his-tagged) (Homo sapiens, UniProt P03372, Q375H).
T3 sequence (P03372 302-552 Q375H limits assumed): T1 sequence (P03372 302-552 limits assumed) with Q74H

The target of assay [4] is T4, ERα LBD (WT-Q, his-tagged) (Homo sapiens, UniProt P03372, Q375K).
T4 sequence (P03372 302-552 Q375K limits assumed): T1 sequence (P03372 302-552 limits assumed) with Q74K

In assay [5] the target is T5, ERα LBD (WT-Q, his-tagged) (Homo sapiens, UniProt P03372, Q375E).
T5 sequence (P03372 302-552 Q375E limits assumed): T1 sequence (P03372 302-552 limits assumed) with Q74E

For the molecule `CC[C@H](c1ccc(O)cc1)[C@@H](CC)c1ccc(O)cc1` [Hex], the Ki in assay [1] is 0.06 ± 0.02 nM; in assay [2], 0.07 ± 0.01 nM; in assay [3] it was 0.29 ± 0.07 nM; in assay [4] it was 0.29 ± 0.05 nM.
`CC[C@H]1C[C@]2(C)[C@@H](O)CC[C@H]2[C@@H]2CCc3cc(O)ccc3[C@@H]12` [Et-E2]: the Ki in assay [1] came to 0.13 ± 0.04 nM; in assay [2], 0.16 ± 0.04 nM; in assay [3] it was 0.74 ± 0.04 nM; in assay [4], 0.29 ± 0.02 nM.
In the case of `C[C@]12C[C@H](CCl)[C@@H]3c4ccc(O)cc4CC[C@H]3[C@@H]1CC[C@@H]2O` [CME], the Ki was determined as 0.11 ± 0.04 nM in assay [1]; 0.22 ± 0.05 nM in assay [2]; 0.58 ± 0.14 nM in assay [3]; 0.35 ± 0.08 nM in assay [5]; 0.41 ± 0.1 nM in assay [4].

By Ki is commonly meant the dissociation constant of the complex between target and ligand, obtained from inhibition or displacement. The low end stands for tighter binding, the high end for weaker binding.
